Laboratory results from patent US9428552B2, “Stem cell mobilization and tissue repair and regeneration” (Wellstat Therapeutics Corporation, priority 2012, dated 2016).
“Also recorded” adds a separate entry of the source. Ends that are not written are not given here. Peptide text beside a SMILES is read from it.

Legend:
[1] = system: EML-Cl cells; assay: CFU-GEMM number of EML cells after 3 hr serum and SCF deprivation; assay type: cell-based, murine; conditions: for rescue of CFU-GEMM: serum and SCF deprivation, 10 μM
Experimental: Erythroid myeloid lymphoid (EML) cells are an established multipotent hematopoietic precursor cell line (EML-Cl) that can be maintained in medium including stem cell factor (SCF) and Horse serum (HS). When plated in methylcellulose with cocktail of growth factors EML cells form mixed colonies (CFUmix or CFU-GEMM) containing a mix of erythroid and myeloid cells that can be enumerated after 7 days of incubation.
Starvation of EML-Cl cell line cells of serum and SCF during 3 hr causes majority of CFUmix to develop apoptosis and die, which decreases their number growing in methylcellulose substantially.
EML cells were grown in IMDM with 10% HS and 100 ng/ml of SCF in IMDM and used for all experiments in exponential growth phase.
Cells were washed from serum and growth factor with IMDM two times, counted and placed into 12 ml polypropylene tubes 2×10^6 cells in 2 ml for 3 hr incubation at t-37° C. and 5% CO2.
Cell suspensions after the incubation were centrifuged, diluted 5 times with IMDM and counted using a hemacytometer. Cells were adjusted to 10^3 cells/mL in IMDM and cell suspension was placed into 50 mL tubes with 4.5 mL of Methylcellulose M3434 mixed well and seeded into 35-mm Petri dishes (Falcon BD351008) at 1 mL/dish. Cells were incubated at 37° C., 5% CO2.
CFU were scored using an inverted microscope after 7 days of incubation.

[2] = Cleavage of peptide during 3 hr incubation with murine bone marrow cells (HPLC, MS); assay type: in vitro ADME; conditions: 100 μg/ml, 37° C., absence of serum
Experimental: B6D2F1 mice (HSD) were treated with 100 mg/kg testosterone propionate 24 hr before being sacrificed, femurs were removed and bone marrow cells (BMC) were flushed from bone marrow cavity. BMC—5×10^6 cells/ml was resuspended in IMDM. Cell suspension was placed into 14-ml Falcon tubes (BD). Peptide Compound A, (Think Peptides) was added to cells at 100 μg/ml concentration. The appropriate volume of IMDM was added to another control supernatant tube containing 1 ml of cells. Cells were incubated for 3 hours at 37° C. After 3 hours of incubation, tubes were centrifuged, supernatants were collected and proteins with Mw>10 KD were eliminated by Amicon filtration at 3000 rpm 25 minutes. 0.5 ml of supernatant containing <10 Kd material was collected from each sample and heat inactivated during 10 min at t-70° C. The following samples were prepared for HPLC and MS: Control supernatant (<10 Kd); Supernatant from cells incubated with Compound A (<10 Kd); Compound A (50 μL) spiked into cell culture medium; and Compound C (50 μL) spiked into cell culture medium.

[3] = molecular target: human recombinant DPPIV (Homo sapiens, UniProt P27487); assay: Hydrolysis of N-terminal by recombinant DPPIV; assay type: in vitro ADME; conditions: previously shown
human recombinant DPPIV, sequence (P27487 whole entry): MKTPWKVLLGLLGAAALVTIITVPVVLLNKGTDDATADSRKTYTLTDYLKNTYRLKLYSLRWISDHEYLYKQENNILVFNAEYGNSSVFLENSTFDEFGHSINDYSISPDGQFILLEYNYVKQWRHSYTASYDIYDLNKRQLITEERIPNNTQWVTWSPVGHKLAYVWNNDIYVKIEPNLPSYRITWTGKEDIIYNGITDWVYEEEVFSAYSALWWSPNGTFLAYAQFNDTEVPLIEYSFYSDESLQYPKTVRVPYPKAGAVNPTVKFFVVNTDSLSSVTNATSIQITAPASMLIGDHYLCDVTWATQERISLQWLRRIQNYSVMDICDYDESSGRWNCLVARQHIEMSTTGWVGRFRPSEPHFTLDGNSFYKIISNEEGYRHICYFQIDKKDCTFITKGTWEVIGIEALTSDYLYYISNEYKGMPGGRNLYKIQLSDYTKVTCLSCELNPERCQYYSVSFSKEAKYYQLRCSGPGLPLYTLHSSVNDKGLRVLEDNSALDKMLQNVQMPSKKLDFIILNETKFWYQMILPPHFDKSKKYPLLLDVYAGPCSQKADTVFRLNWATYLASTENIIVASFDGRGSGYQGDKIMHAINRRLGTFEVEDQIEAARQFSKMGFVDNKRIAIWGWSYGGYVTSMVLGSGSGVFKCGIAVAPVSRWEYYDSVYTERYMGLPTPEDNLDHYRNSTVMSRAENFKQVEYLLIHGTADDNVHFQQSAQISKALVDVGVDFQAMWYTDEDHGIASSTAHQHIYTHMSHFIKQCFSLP

[4] = molecular target: murine recombinant DPPIV (Mus musculus, UniProt P28843); assay: Hydrolysis of N-terminal by recombinant DPPIV; assay type: in vitro ADME; conditions: previously shown
murine recombinant DPPIV, sequence (P28843 whole entry): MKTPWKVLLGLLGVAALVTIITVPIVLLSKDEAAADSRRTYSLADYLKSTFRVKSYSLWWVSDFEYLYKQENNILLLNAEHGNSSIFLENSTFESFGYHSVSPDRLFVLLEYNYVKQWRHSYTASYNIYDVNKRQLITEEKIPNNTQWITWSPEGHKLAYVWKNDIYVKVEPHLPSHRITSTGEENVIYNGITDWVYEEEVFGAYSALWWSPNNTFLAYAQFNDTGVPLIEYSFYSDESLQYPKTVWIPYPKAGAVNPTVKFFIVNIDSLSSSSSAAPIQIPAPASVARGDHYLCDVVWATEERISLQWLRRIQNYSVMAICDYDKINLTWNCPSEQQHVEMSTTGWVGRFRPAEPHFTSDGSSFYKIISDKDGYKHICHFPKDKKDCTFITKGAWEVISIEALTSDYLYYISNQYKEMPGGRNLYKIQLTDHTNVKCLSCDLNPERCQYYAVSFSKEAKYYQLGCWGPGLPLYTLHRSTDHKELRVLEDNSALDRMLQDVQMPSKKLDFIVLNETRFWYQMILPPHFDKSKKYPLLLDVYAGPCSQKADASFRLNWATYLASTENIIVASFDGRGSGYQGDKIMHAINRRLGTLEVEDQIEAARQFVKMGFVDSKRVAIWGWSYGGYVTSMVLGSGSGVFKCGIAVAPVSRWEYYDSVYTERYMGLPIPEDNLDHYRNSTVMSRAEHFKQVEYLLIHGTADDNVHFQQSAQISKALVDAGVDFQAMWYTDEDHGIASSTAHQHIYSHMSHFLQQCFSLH

[5] = system: hindlimb ischemia; assay: Unilateral hindlimb ischemia by femoral artery ligation; assay type: in vivo; conditions: C57/BL6 mice, day 9; peptide 250 μg/kg s.c., DFO 100 mg/kg i.m.
Text: Ligation of the femoral artery in mice is an established model of hindlimb ischemia for testing treatments that might improve revascularization and functional recovery.
A total of 50 C57/B16 8-10 week old female mice were divided into 5 treatment groups (n=10/group).
• 1. Vehicle Control • 2. DFO (intramuscular) DFO (desferrioxamine) has been reported to improve revascularization by augmenting HIF-1α activation in sites of damage, to elicit secretion of local angiogenic factors and chemotactic signals that attract circulating repair-promoting stem and progenitor cells) • 3. DFO (intramuscular)+Compound C (subcutaneous) • 4. Compound A (subcutaneous) • 5. DFO (intramuscular)+Compound A (subcutaneous)
Mice were subjected to unilateral total ligation and transection of the femoral artery under anesthesia (2% Isoflurane mixed with 100% oxygen). A unilateral incision was made over the left medial thigh of each mouse. […]
On day 0, 4, 9, and 14, the condition of left hind limbs were evaluated with Muscle Function Score and Ischemia Score. […]
Recovery of circulation and function in the hindlimb ischemia model involves angiogenesis and revascularization, a process triggered by oxygen deficits. Revascularization was evaluated on day 14 after artery ligation by counting capillaries in cross sectional histology slides prepared from gastrocnemius muscles from both legs. […]

[6] = system: CFU-GEMM; assay: Effect of S1P gradient disruption (DOP) on mobilization after multiple subcutaneous injections; assay type: in vivo; conditions: DBA/2J mice, DOP in glucose drinking water
Experimental: In this experiment the inhibitor of S1P lyase activity, 4-deoxypyridoxine (DOP, Sigma-Aldrich) was administrated to mice in the drinking water in order to test if disruption of S1P gradient has an effect on mobilization induced by Compound A. Fifteen week-old DBA/2J male mice (Jackson Laboratories) were divided into 4 groups of 4 mice each. All Mice received glucose drinking water (10 g/L) throughout the duration of the study. DOP ([…]) was added to the glucose water of two groups. Mice were subcutaneously injected for four consecutive days with 500 μg/kg of Compound A or Saline. At one-hour post injections on day 4, peripheral blood from mice was harvested from the orbital plexus using capillary tubes (VWR) and collected into EDTA-containing tubes (BD). To determine mobilization of colony-forming unit cells out of the peripheral blood, mononuclear cells were plated in mouse methylcellulose complete media (R&D Systems). The cells were placed into 35-mm Petri dishes at 100,000 cells per dish with 5 dishes per group. Cells incubated for 11 days in a 37° C. and 5% CO2 humidified incubator. CFU colonies were then scored using an inverted microscope.

[7] = system: hematopoietic stem cells (HSC) and their hematopoietic progenitors (HPC); assay: Mobilization of stem cells into peripheral blood after single subcutaneous injection (colony-forming assay); assay type: in vivo; conditions: DBA/2J mice, single 125 μg/kg dose, within one hour of administration
Experimental: Stimulatory doses of Compound A activate quiescent stem cells, induce them to proliferate and egress from bone marrow into peripheral blood. […]
After 1 hour, mice were anesthetized and blood was collected through the orbital sinus with heparinized capillary tubes. To enumerate HSC and HPC in peripheral blood, cells were washed, counted and plated in semi-solid Methylcellulose (Stem cell technology) at 100,000 per dish (5 dishes/group) and placed in CO2 incubator at 37° C. Colony-forming unit-granulocyte erythroid macrophage megakaryocyte (CFU-GEMM) and Colony-forming unit-granulocyte macrophage (CFU-GM) were detected under inverted microscope after 7-10 days in culture.

[8] = system: CFU-GEMM and CFU-GM; assay: Mobilization of stem cells into peripheral blood after multiple subcutaneous injections; assay type: in vivo, mice; conditions: dose response
Text: This example is based on a protocol for a 5-day course of once-daily Compound A injections into DBA male mice similar to a G-CSF. […]
[…] At 7 days post initial injection, peripheral blood from 3 mice per group was harvested from the orbital plexus using capillary tubes (VWR) and collected into EDTA-containing tubes (VWR). Blood was also harvested and pooled from 3 naïve mice to serve as a naïve control group.

[9] = system: CFU-GEMM; assay: Mobilization of CFU-GEMM and CFU-GM in db/db mice with high glucose level; assay type: in vivo; conditions: 5 mg/kg s.c.
Experimental: To test mobilizing effect of Compound A in db/db mice with high level of glucose the following experiment was conducted. BKS.Cg-Dock7m+/+Leprdb/J male mice (10 weeks old Jackson Laboratories, stock #000642) were subcutaneously injected with 0.9% saline (vehicle control), 5 mg/kg Compound C, or 10 mg/kg Compound A (ThinkPeptides) for 5 consecutive days. At 7 days post initial injection, peripheral blood from 3 mice per group was harvested from the orbital plexus using capillary tubes (VWR) and collected into EDTA-containing tubes (BD).

[10] = system: Caspase-3; assay: Caspase-3 fluorimetric assay in EML cell lysates after HS and SCF deprivation; assay type: cell-based, murine; conditions: for Caspase-3 proteolytic activity, Exp 1 / Caspase-3 proteolytic activity, Exp 2 / Caspase-3 proteolytic activity, Exp 3 / Caspase-3 proteolytic activity, Sum of 3 experiments: 10 μM present during starvation, starvation control 100%; for Caspase-3 activation induced by HS and SCF deprivation: EML cells, peptide present during starvation
Experimental: To assess possible effect of Compound A and other peptides on Caspase-3 enzymatic activity during apoptosis induced by serum starvation fluorimetric assay Caspase-3 assay was performed according to the manufacturer's instructions (ApoAlert Clontech Mountain view CA).
Cell suspensions after the incubation were divided into two equal tubes (+/−Caspase inhibitor). Cells were centrifuged at 400×g for 5 min and re-suspend in chilled Cell Lysis Buffer with the following incubation on ice for 10 min., cell lysates were centrifugated in a microcentrifuge at max speed for 10 min at 4° C. and transferred into new tubes.
50 μl of 2× Reaction buffer/DTT mix and 1 μl of Caspase inhibitor added to 50 μl of cell lysate (+Inhibitor groups). 1 uL DMSO per 50 μL of 2× Reaction buffer was added to samples without inhibitor.
5 μL of the 1 mM Caspase-3 Substrate (DEVD-AFC; 50 μM final concentration) were added to each tube and incubated at t-37° C. for 1 hr in a water bath. All samples in duplicates were transferred to a 96 well plate. The plates were analyzed on a fluorescence plate reader (Spectramax Gemini.) at a 400 nm excitation and a 505 nm emission, and Caspase-3 activity was expressed relative to the medium control. Free AFC accumulation that resulted from cleavage of the asparatic-AFC bond monitored by fluorimeter and results in duplicates were recalculated according to the free AFC calibration curve.

[11] = system: THP-1 cells; assay: Cytokine production by THP-1 cells in response to LPS; assay type: cell-based; conditions: 4 hours, levels ranging from 1 μM down to 10 nM
Experimental: THP-1 cells activated with 0.2 μM vitamin-D3 (EMD Biosciences Inc) and cultured in cRPMI [RPMI plus 10% ΔFBS (both Lonza)] were transferred to 24-well dishes. Different concentrations of Compound A or related peptides were added (in triplicate) and the plate placed in a 37° C. incubator.
After 1 hour, crude-LPS from E. coli 0111:B4 (20 ng-100 ng/ml final conc) was added to some wells. Supernatant aliquots were taken after 4 hours and cytokine levels determined using a cytokine bead array kit (BD558277).

With `CCCCCCCCCCCC1N[C@H](C(=O)O)CS1` (stereo partly drawn) [CAY10444] the “rescue of CFU-GEMM” value [1] was “rescued CFU-GEMM”.

For `CC(C)C[C@H](NC(=O)[C@H](CC(=O)O)NC(=O)[C@H](Cc1ccccc1)NC(=O)[C@H](Cc1c[nH]cn1)NC(=O)[C@@H]1CCCN1C(=O)[C@@H](N)Cc1ccccc1)C(=O)N[C@@H](CO)C(=O)N[C@@H](Cc1c[nH]cn1)C(=O)NCC(=O)N[C@@H](CO)C(=O)N[C@@H](C)C(=O)N[C@@H](CCC(N)=O)C(=O)N[C@H](C(=O)N[C@@H](CO)C(=O)N[C@@H](CC(=O)O)C(=O)N[C@@H](CCCCN)C(=O)N1CCC[C@H]1C(=O)O)C(C)C` [Compound A, Phe-Pro-His-Phe-Asp-Leu-Ser-His-Gly-Ser-Ala-Gln-Val-Ser-Asp-Lys-Pro] (H-FPHFDLSHGSAQVSDKP-OH; N-terminus and C-terminus assumed), the “cleavage after incubation with murine bone marrow cells” value [2] was “proteolyses of the peptide was registered”, the “hydrolysis of N-terminal by human recombinant DPPIV” value [3] was “can be hydrolyzed” and the “hydrolysis of N-terminal by murine recombinant DPPIV” value [4] was “can be hydrolyzed”.

With `CCCCCCCCCCCCC/C=C/[C@@H](O)[C@@H](N)COP(=O)(O)O` [Compound S1P, Sphingosine 1-phosphate] the “rescue of CFU-GEMM” value [1] was “rescued CFU-GEMM”.

With `CC(=O)N(O)CCCCCNC(=O)CCC(=O)N(O)CCCCCNC(=O)CCC(=O)N(O)CCCCCN` [DFO, desferrioxamine] the “Muscle Function Score” value [5] was “maintained impairment”.

For `Cc1ncc(CO)c(C)c1O` [DOP, 4-deoxypyridoxine], the “mobilization of colony forming cells into peripheral blood” value [6] was “decreased mobilization”.

With `FC(F)(F)c1cccc(-c2noc(-c3cc(-c4ccccc4)c(C(F)(F)F)s3)n2)c1` [SEW2871] the “rescue of CFU-GEMM” value [1] was “rescued CFU-GEMM”.

For “FPHFDLSHGSAQV [Compound C, included for comparison with the oligopeptides of this invention]”, the “increase in CFU-GEMM numbers” value [7] was “two-fold”, the “dose with the best effect on CFU-GEMM mobilization” value [8] was 0.75 mg/kg and the “CFU-GEMM / progenitor cell mobilization into peripheral blood” value [9] was “did not cause CFU-GEMM mobilization; also recorded: did not mobilize progenitor cells”. The “rescue of colony-forming cells (CFUmix/CFU-GEMM) during starvation” value ([1]; 3 hr HS and SCF deprivation, compared with combined HS and SCF) was “rescued colony-forming cells”, the “Caspase-3 proteolytic activity, Exp 1” value [10] was 66% and the “Caspase-3 proteolytic activity, Exp 2” value [10] was 83%. For the same molecule, the “Caspase-3 proteolytic activity, Exp 3” value [10] was 53%, the “Caspase-3 proteolytic activity, Sum of 3 experiments” value [10] was 67.3 +/− 15% and the “Caspase-3 activation induced by HS and SCF deprivation” value [10] was “prevented Caspase-3 activation”.

With JTE-013 the “rescue of CFU-GEMM” value [1] was “rescued CFU-GEMM”.

With “N-acetyl-Ser-Asp-Lys-Pro (Ac-SDKP) [AcSDKP]” the TNFα secretion [11] was “strongly inhibited”, the “Caspase-3 proteolytic activity, Exp 1” value [10] was 70% and the “Caspase-3 proteolytic activity, Exp 2” value [10] was 84%. The “Caspase-3 proteolytic activity, Exp 3” value [10] was 65%, the “Caspase-3 proteolytic activity, Sum of 3 experiments” value [10] was 73 +/− 9.8% and the “Caspase-3 activation induced by HS and SCF deprivation” value [10] was “prevented Caspase-3 activation”.
